Format in all cases: binding, human
Assay [1] concerns antibodies in antisera from HIV-2 infected persons. The assay is described as follows: ELISA with HIV-2 antibody-positive sera (biotinylated peptides on streptavidin- or avidin-coated plates, unbiotinylated peptides coated directly). As for the experimental part: (§1) Where peptides were to be coated directly, stock solutions of the peptides were diluted in sodium carbonate buffer, pH 9.6 and used to coat polystyrene microtiter plates at a peptide concentration of 2 to 5 micrograms per milliliter for 1 hour at 37° C.
(§2) In cases where biotinylated peptides were to be evaluated, plates were first coated with streptavidin in sodium carbonate buffer, pH 9.6 at a concentration of 3 micrograms per milliliter for 1 hour at 37° C. The plates were then washed to remove excess, unbound protein. A working solution of the biotinylated peptide at 1 microgram per milliliter in sodium carbonate buffer was then added to the wells of the microtiter plate and incubated for 1 hours at 37° C.
(§3) Once the plates had been coated with antigen, any remaining free binding sites on the plastic were blocked with casein. After washing, a dilution of the appropriate antisera, usually 1:100, was added to the wells of the plates and incubated for 1 hour at 37° C.
(§4) After washing to remove unbound material, specific antibody binding was detected by incubating the plates with goat anti-human immunoglobulin antibodies conjugated to the enzyme horseradish peroxidase. Following removal of unbound conjugate by washing, a solution containing H2O2 and 3,3′,5,5′-tetramethylbenzidine was added.
(§5) Reactions were stopped after a suitable interval by addition of sulfuric acid. […] Absorbance measurements were made at a wavelength of 450 nanometers and all data are expressed as an optical density value at this wavelength.
The biotinylated peptides were loaded onto microtiter plates which had been coated with streptavidin. Antibody binding to these peptides was compared to antibody binding to the unibiotinylated peptides which were coated directly onto microtiter plates. It is evident that the biotinylated peptides from the HIV-1 or HIV-2 transmembrane proteins bound to streptavidin are recognized very well by antisera from HIV-1 or HIV-2 infected persons respectively. This is in contrast to the unbiotinylated versions of these peptides coated directly onto the polystyrene plates.
(§6) To determine how well biotinylated peptides would function in a mixture when bound to streptavidin- or avidin-coated plates, two mixtures were made of the N-terminally biotinylated versions of the HIV-1 peptides TM-HIV-1 (hereabove referred to as 1a.1) and V3-nm (hereabove referred to as 1b.4), the HIV-2 peptide TM-HIV-2 (hereabove referred to as 2a), and the hepatitis C virus peptides II, IX, and XVIII. Mixture A contained each of the six biotinylated peptides at a concentration of 1 microgram per milliliter (6 micrograms per milliliter peptide, total) while in mixture B, each peptide was present at a concentration of 0.1 microgram per milliliter (0.6 microgram per milliliter peptide, total). The individual peptides were coated at a concentration of 1 microgram per milliliter. For purposes of comparison, mixtures A and B were also coated directly onto the wells of a microtiter plate. Samples from HIV-1, HIV-2, and HCV-seropositive donors were tested and compared to sera from seronegative blood donors. A cut-off absorbance value of 0.250 was used to determine whether a reaction was positive or negative. Absorbance values equal or greater than 0.250 were considered positive while absorbance values below this value were considered negative.
Two glycine residues were added at the N-terminus of each peptide to serve as a spacer and a biotin was coupled to the α-amino group of the resulting N-terminal glycine. The peptides were bound to streptavidin and coated in the wells of microwell plates. HIV-2 antibody-positive sera were used to evaluate these two peptides in an ELISA.
For orientation: In an ELISA, binding on a coated surface is turned into a signal by an enzyme label.

Assay [2] has as its system antibodies in antisera from HIV-1 infected persons. Description: ELISA with HIV-1 antibody-positive sera (biotinylated peptides on streptavidin- or avidin-coated plates, unbiotinylated peptides coated directly). As for the experimental part: as §1, §2, §3, §4, §5
Experiments were performed to evaluate antibody recognition of short, 10 amino acid-long, N-acetylated peptides corresponding to other contained within the transmembrane proteins of HIV-1 and HIV-2. […] The peptides used for the comparison were as follows:
Antibody binding to these peptides was compared to antibody binding to the unibiotinylated peptides which were coated directly onto microtiter plates.
In order to evaluate antibody recognition of these two peptides, the peptides were bound individually to streptavidin-coated microtiter plates and tested using a panel of antisera from HIV-1 seropositive donors.
as §6
A spacer consisting of two glycine residues was added to the amino terminus.

For assay [3], the system named is HIV-1 anti-V3 loop antibodies in sera. Description: Line immunoassay (LIA) with HIV-1 gp120 V3 loop peptides. The following applies: for recognition of peptide, % of sera: Table 15. The text has this: In order to determine the general diagnostic value of the V3 loop region of gp120, nine peptides derived from this region of nine different HIV-1 isolates were synthesized and included in a LIA. All nine peptides were provided with a Gly-Gly spacer and an N-terminal biotin. The aligned peptides (one-letter amino acid code) sequences are as follows: (SEQ ID NOs: 154-162, respectively)
The peptides were mixed with streptavidin in a slight molar excess over biotin binding sites and the peptide:streptavidin complexes were separated from unbound material over Sephadex G-25. Material eluting in the void volume was used in the preparation of the LIA.
A total of 332 sera were tested which had been obtained from various geographical regions. […] The reactions of the various lines were evaluated as positive (i) or negative (o) (data not shown).
In total, 307 of the 332 sera gave a reaction to at least one peptide on the V3-loop LIA. […] The total number of positive sera tested was therefore 326. […] There were, however, significant geographical differences.

Setting [4] is: Table 8, serum 1400 (HIV-2), Avidin.
The mark [5] stands for this setting: Table 8, serum AG (HIV-2), Avidin.
[6] abbreviates: Table 8, serum 3990 (HIV-1), Avidin.
[7] abbreviates: Table 8, serum DV (HIV-1), Avidin.
[8] abbreviates: Table 8, serum PL (HIV-1), Avidin.
The mark [9] stands for this setting: Table 8, serum YS (HIV-1), Avidin.
Setting [10] is: Table 14, HIV-V3 positive sera, 307.
Setting [11] is: Table 14, gp120 positive sera, COUNT 326.

We go through five substances from patent US6667387B1, “HCV core peptides” (priority 1992, dated 2003).

Ends that are not written are not given here. * marks the point of attachment. Biotin = O=C1N[C@H]2[C@H](CS[C@H]2CCCCC(=O)*)N1

As to IIPDREVLYREFDEMEECSQ, the “optical density (450 nm)” value is recorded as 0.052 in assay [1] (setting [4]); 0.064 in assay [1] (setting [5]); 0.066 in assay [2] (setting [6]); 0.049 in assay [2] (setting [7]); 0.056 in assay [2] (setting [8]); 0.049 in assay [2] (setting [9]).
In the case of “Bio-Gly-Gly-Gly-Ile-Trp-Gly-Cys-Ser-Gly-Lys-Leu-Ile-Cys-NH2 (Biotin-GGGIWGCSGKLIC-NH2; cysteine pairing not given here) [TM-HIV-1 Bio]”, the “optical density (450 nm)” value was 0.000 in assay [1] (Table 1, serum 53-3, HIV-2 positive); 0.000 in assay [1] (Table 1, serum 1400, HIV-2 positive); 0.000 in assay [1] (Table 1, serum AG, HIV-2 positive); 0.051 in assay [1] (setting [4]); 0.054 in assay [1] (setting [5]); 2.570 in assay [2] (Table 1, serum 0724, HIV-1 positive). For the same substance, the “optical density (450 nm)” value was determined as 1.559 in assay [2] (Table 1, serum PL, HIV-1 positive); 2.551 in assay [2] (Table 1, serum VE, HIV-1 positive); 2.357 in assay [2] (Table 1, serum YEMO, HIV-1 positive); 2.579 in assay [2] (Table 1, serum mm, HIV-1 positive); 2.042 in assay [2] (Table 6, serum 0369/87, HIV positive); 2.291 in assay [2] (Table 6, serum 0724, HIV positive). For the same substance, the “optical density (450 nm)” value is 1.919 in assay [2] (Table 6, serum 1164, HIV positive); 2.356 in assay [2] (Table 6, serum 1252, HIV positive); 2.058 in assay [2] (Table 6, serum 2049, HIV positive); 1.870 in assay [2] (Table 6, serum 3990, HIV positive); 2.110 in assay [2] (Table 6, serum 4436, HIV positive); 1.697 in assay [2] (Table 6, serum 4438, HIV positive). Moreover, the “optical density (450 nm)” value in assay [2] (Table 6, serum DV, HIV positive) is on record as 1.579; in assay [2] (Table 6, serum MM, HIV positive) it was 2.308; in assay [2] (Table 6, serum OOST 6, HIV positive), 2.003; in assay [2] (Table 6, serum OOST 7, HIV positive), 2.027; in assay [2] (Table 6, serum OOST 8, HIV positive), 2.237; in assay [2] (Table 6, serum OOST 9, HIV positive) it was 2.222. The “optical density (450 nm)” value in assay [2] (Table 6, serum PL, HIV positive) was determined as 1.849; in assay [2] (Table 6, serum VCM, HIV positive), 2.263; in assay [2] (Table 6, serum VE, HIV positive) it was 2.240; in assay [2] (setting [6]), 1.602; in assay [2] (setting [7]), 1.329; in assay [2] (setting [8]), 1.974. For the same substance, the “optical density (450 nm)” value in assay [2] (setting [9]) was 0.046.
In the case of ETWKKPDYEPPVVHGCPLPP, the “optical density (450 nm)” value in assay [1] (setting [4]) is reported as 1.362; in assay [1] (setting [5]), 0.058; in assay [2] (setting [6]), 0.056; in assay [2] (setting [7]), 0.047; in assay [2] (setting [8]), 0.052; in assay [2] (setting [9]), 0.049.
For the substance “Bio-Gly-Gly-Tyr-Asn-Lys-Arg-Lys-Arg-Ile-His-Ile-Gly-Pro-Gly-Arg-Ala-Phe-Tyr-Thr-Thr-Lys-Asn-Ile-Ile-Gly-NH2 (Biotin-GGYNKRKRIHIGPGRAFYTTKNIIG-NH2) [V3-mn Bio]”, the “optical density (450 nm)” value in assay [1] (setting [4]) was found to be 0.055; in assay [1] (setting [5]), 0.068; in assay [2] (Table 2, sample 266), 2.591; in assay [2] (Table 2, sample 4436), 2.268; in assay [2] (Table 2, sample 4438), 2.554; in assay [2] (Table 2, sample DV), 2.881. The “optical density (450 nm)” value came out at 2.542 in assay [2] (Table 2, sample MM); 2.355 in assay [2] (Table 2, sample OOST 6); 2.351 in assay [2] (Table 2, sample PL); 2.784 in assay [2] (Table 2, sample YS); 1.854 in assay [2] (Table 3, serum 3990, peptide bound to avidin); 1.391 in assay [2] (Table 3, serum 3990, peptide bound to streptavidin). Also, the “optical density (450 nm)” value came out at 1.519 in assay [2] (Table 3, serum 4436, peptide bound to avidin); 0.596 in assay [2] (Table 3, serum 4436, peptide bound to streptavidin); 1.748 in assay [2] (Table 3, serum DV, peptide bound to avidin); 1.041 in assay [2] (Table 3, serum DV, peptide bound to streptavidin); 0.983 in assay [2] (Table 3, serum PL, peptide bound to avidin); 0.222 in assay [2] (Table 3, serum PL, peptide bound to streptavidin). Moreover, the “optical density (450 nm)” value in assay [2] (Table 3, serum VE, peptide bound to avidin) worked out at 1.908; in assay [2] (Table 3, serum VE, peptide bound to streptavidin) it was 1.526; in assay [2] (Table 3, serum YS, peptide bound to avidin), 1.721; in assay [2] (Table 3, serum YS, peptide bound to streptavidin) it was 1.236; in assay [2] (setting [6]), 2.319; in assay [2] (setting [7]), 2.340. Further, the “optical density (450 nm)” value in assay [2] (setting [8]) stood at 1.321; in assay [2] (setting [9]), 2.201. Moreover, the “optical density (450 nm), off scale” value was “overflow* (Absorbance value greater than 3.000)” in assay [2] (Table 2, sample 3990); “overflow* (Absorbance value greater than 3.000)” in assay [2] (Table 2, sample OOST 4); “overflow* (Absorbance value greater than 3.000)” in assay [2] (Table 2, sample OOST 8); “overflow* (Absorbance value greater than 3.000)” in assay [2] (Table 2, sample VE). For the same substance, the “% Reactive” value in assay [3] (setting [10]) is 90%; in assay [3] (setting [11]) it was 84%. Also, in assay [3] (setting [10]), the “Total SUM (reactive sera), printed on the line COUNT” value is recorded as 275. In addition, the “Total SUM (reactive sera)” value in assay [3] (setting [11]) is on record as 275. Moreover, the entries for the “recognition of peptide, % of sera” value in assay [3] (AFRICAN sera), in assay [3] (BRAZILIAN sera) and in assay [3] (EUROPEAN sera) were 85%, 78% and 97%, respectively.
On to PQRKTKRNTNRRPQDVKFPG, for which the “optical density (450 nm)” value in assay [1] (setting [4]) is on record as 0.121; in assay [1] (setting [5]), 0.081; in assay [2] (setting [6]), 0.054; in assay [2] (setting [7]) it was 0.047; in assay [2] (setting [8]), 0.052; in assay [2] (setting [9]), 0.048.
